# Test: Preliminary stability study of API intravesical solution
# Format: physicochemical
# Protocol: Two dose strengths were specified: 40 μg/mL and 150 μg/mL API. These concentrations were defined in order to stay below 80% of the saturated solubility values obtained during previous experiments. To enable dissolution of the API, 0.5 wt.-% and 2 wt.-% vitamin E TPGS were used for 40 μg/mL and 150 μg/mL API, respectively (24 h stirring). The compositions were treated with nitrogen and stored at 5° C., 25° C. and 40° C.
# [1] = vitamin E TPGS 0.5%, API 40 μg/mL, no Asc., treated with nitrogen, 6° C., 1 m
# [2] = vitamin E TPGS 0.5%, API 40 μg/mL, no Asc., treated with nitrogen, 6° C., 2 w
# [3] = vitamin E TPGS 0.5%, API 40 μg/mL, no Asc., treated with nitrogen, 6° C., 3 m
# [4] = vitamin E TPGS 0.5%, API 40 μg/mL, no Asc., treated with nitrogen, 25° C., 1 m
# [5] = vitamin E TPGS 0.5%, API 40 μg/mL, no Asc., treated with nitrogen, 25° C., 2 w
# [6] = vitamin E TPGS 0.5%, API 40 μg/mL, no Asc., treated with nitrogen, 25° C., 3 m
# [7] = vitamin E TPGS 0.5%, API 40 μg/mL, no Asc., treated with nitrogen, 40° C., 1 m
# [8] = vitamin E TPGS 0.5%, API 40 μg/mL, no Asc., treated with nitrogen, 40° C., 2 w
# [9] = vitamin E TPGS 0.5%, API 40 μg/mL, no Asc., treated with nitrogen, 40° C., 3 m
# [10] = vitamin E TPGS 0.5%, API 40 μg/mL, no Asc., treated with nitrogen, t = 0
# [11] = vitamin E TPGS 2%, API 150 μg/mL, Asc. 1%, 6° C., 1 m
# [12] = vitamin E TPGS 2%, API 150 μg/mL, Asc. 1%, 6° C., 2 w
# [13] = vitamin E TPGS 2%, API 150 μg/mL, Asc. 1%, t = 0
# [14] = vitamin E TPGS 2%, API 150 μg/mL, no Asc., treated with nitrogen, 6° C., 1 m
# [15] = vitamin E TPGS 2%, API 150 μg/mL, no Asc., treated with nitrogen, 6° C., 2 w
# [16] = vitamin E TPGS 2%, API 150 μg/mL, no Asc., treated with nitrogen, 6° C., 3 m
# [17] = vitamin E TPGS 2%, API 150 μg/mL, no Asc., treated with nitrogen, 25° C., 1 m
# [18] = vitamin E TPGS 2%, API 150 μg/mL, no Asc., treated with nitrogen, 25° C., 2 w
# [19] = vitamin E TPGS 2%, API 150 μg/mL, no Asc., treated with nitrogen, 25° C., 3 m
# [20] = vitamin E TPGS 2%, API 150 μg/mL, no Asc., treated with nitrogen, 40° C., 1 m
# [21] = vitamin E TPGS 2%, API 150 μg/mL, no Asc., treated with nitrogen, 40° C., 2 w
# [22] = vitamin E TPGS 2%, API 150 μg/mL, no Asc., treated with nitrogen, 40° C., 3 m
# [23] = vitamin E TPGS 2%, API 150 μg/mL, no Asc., treated with nitrogen, t = 0
smiles,measurement,setting,value
"CN(C)[C@]1(c2cccc(F)c2)CC[C@]2(CC1)c1[nH]c3ccccc3c1CCN2C(=O)/C=C/c1ccccc1 [API, cis-(E)-4-(3-fluorophenyl)-2′,3′,4′,9′-tetrahydro-N,N-dimethyl-2′-(1-oxo-3-phenyl-2-propenyl)-spiro[cyclohexane-1,1′[1H]-pyrido[3,4-b]indol]-4-amine]",Assay,[1],54.62 % L.S.
same,Impurities,[1],0.58 % (a/a)
same,Assay,[2],54.81 % L.S.
same,Impurities,[2],0.08 % (a/a)
same,Assay,[3],55.05 % L.S.
same,Impurities,[3],0.69 % (a/a)
same,Assay,[4],54.98 % L.S.
same,Impurities,[4],0.86 % (a/a)
same,Assay,[5],54.71 % L.S.
same,Impurities,[5],0.97 % (a/a)
same,Assay,[6],54.50 % L.S.
same,Impurities,[6],1.42 % (a/a)
same,Assay,[7],54.06 % L.S.
same,Impurities,[7],1.78 % (a/a)
same,Assay,[8],54.61 % L.S.
same,Impurities,[8],1.04 % (a/a)
same,Assay,[9],52.07 % L.S.
same,Impurities,[9],4.94 % (a/a)
same,Assay,[10],54.58 % L.S.
same,Impurities,[10],0.55 % (a/a)
same,Assay,[11],67.68 % L.S.
same,Impurities,[11],1.16 % (a/a)
same,Assay,[12],68.11 % L.S.
same,Impurities,[12],0.68 % (a/a)
same,Assay,[13],68.21 % L.S.
same,Impurities,[13],0.68 % (a/a)
same,Assay,[14],61.93 % L.S.
same,Impurities,[14],0.72 % (a/a)
same,Assay,[15],62.29 % L.S.
same,Impurities,[15],0.49 % (a/a)
same,Assay,[16],62.05 % L.S.
same,Impurities,[16],0.72 % (a/a)
same,Assay,[17],62.07 % L.S.
same,Impurities,[17],1.00 % (a/a)
same,Assay,[18],61.97 % L.S.
same,Impurities,[18],0.68 % (a/a)
same,Assay,[19],61.96 % L.S.
same,Impurities,[19],1.37 % (a/a)
same,Assay,[20],61.37 % L.S.
same,Impurities,[20],1.84 % (a/a)
same,Assay,[21],61.71 % L.S.
same,Impurities,[21],1.16 % (a/a)
same,Assay,[22],59.41 % L.S.
same,Impurities,[22],4.09 % (a/a)
same,Assay,[23],61.73 % L.S.
same,Impurities,[23],0.44 % (a/a)
